The values that follow are results of earlier work, collected in publication PMC12287436 (Scientific Reports, 2025).

Each structure is given as a SMILES string. Counter-ions that a name gives are not always drawn.

For the data set the following is noted: rabbits; 2% instillation dose.

As for `CCN[C@H]1C[C@H](C)S(=O)(=O)c2sc(S(N)(=O)=O)cc21` [dorzolamide hydrochloride], the Retinal concentration is on record as 2.8 µM.
